Percent span data for 89 molecules are collected here from PubChem BioAssay AID1329 (NMMLSC, 2008).

Active and inactive are the calls of the source. No rule for the calls is given here.

For the assay, the target named is Induced myeloid leukemia cell differentiation protein Mcl-1 (Homo sapiens) (UniProt Q07820). As to the kind of experiment: modulators of Bim peptide binding to Mcl-1, dose response, biochemical, bead-based flow cytometry, multiplexed, human (AID 1329). The note with it: Bim peptide-Mcl-1 binding, MCF.
Chain of Induced myeloid leukemia cell differentiation protein Mcl-1 (Homo sapiens) (Q07820 whole entry, looked up): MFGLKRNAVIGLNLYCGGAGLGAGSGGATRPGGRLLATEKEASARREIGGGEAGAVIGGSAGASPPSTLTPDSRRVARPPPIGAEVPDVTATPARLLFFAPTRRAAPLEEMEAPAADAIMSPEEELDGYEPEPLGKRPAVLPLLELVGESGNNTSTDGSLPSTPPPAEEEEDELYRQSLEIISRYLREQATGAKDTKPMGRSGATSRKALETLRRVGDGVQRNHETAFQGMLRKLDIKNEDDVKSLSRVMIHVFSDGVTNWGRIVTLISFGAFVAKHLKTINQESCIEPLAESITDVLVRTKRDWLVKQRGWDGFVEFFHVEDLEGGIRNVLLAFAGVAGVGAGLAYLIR
As for `CCOc1ccc(C(=O)Nc2nnc(NC(=S)Nc3ccccc3)s2)cc1`, the percent span entry is “inactive”.
As to `CN=c1scc(-c2cccs2)n1/N=C/c1ccc(O)c(O)c1O`, the percent span result is “inactive”.
The entry for `O=C(Cc1ccccc1)OCCNC(=O)c1cccnc1` is “inactive”; for `CCc1ccc(NC(=O)CC2NCCNC2=O)cc1` (centres undefined) it is “inactive”.
The entry for `COc1ccc(C2CC(=O)C3=C(C2)Nc2ccccc2NC3c2coc3ccccc3c2=O)cc1OC` (centres undefined) is “inactive”.
Turning to `CCN(CC)C(=O)COC(=O)c1cc(-c2ccco2)nc2ccccc12`, the percent span entry was “inactive”.
The entry for `COc1ccc(/C=C(/C(=O)c2cccs2)N2C=CC=CC2=C(C#N)C#N)cc1` is “inactive”.
Turning to `COC(=O)c1cccc(-n2c(C)cc(C=O)c2C)c1`, the percent span result is “inactive”.
The entry for `COc1ccc(NC(=O)/C(Cl)=C(/Cl)S(=O)Cc2ccccc2)cn1` (centres undefined) is “inactive”; for `Cc1ccc(Nc2nc(-c3ccccc3)c(CC(=O)O)s2)cc1` it is “inactive”.
Take `COC(=O)c1ccc(C)c(NC(=O)CCNC(=O)c2ccc([N+](=O)[O-])cc2)c1`: the percent span result was “inactive”.
The value for `Cn1c(=O)c2c(nc(NCCO)n2CCc2ccccc2)n(C)c1=O` was “inactive”.
For `CCCCCCc1cc2cc(C(=O)Nc3ccccc3)c(=O)oc2cc1O`, the percent span result was “inactive”.
Take `CCOc1ccc(C2=Nn3c(nnc3-c3ccccn3)SC2)cc1`: the percent span entry was “inactive”.
The value for `Cc1cccc(Nc2nc(-c3ccncc3)cs2)c1` was “inactive”.
The value for `CCSc1ncnc2sc(C)c(C)c12` was “inactive”; that for `Cc1ccc(-c2ccc(CCC(=O)O)n2NC(=O)c2cccs2)cc1` was “inactive”.
The value for `COc1cccc(NC(=O)CSc2nncn2N)c1` was “inactive”.
As to `CC(=O)Nc1ccc(-n2cc(-c3ccccc3)[nH]c2=S)cc1`, the percent span entry was “inactive”.
Turning to `Cc1ccc(NC(=O)C/C(N)=N/OC(=O)c2ccccc2)cc1`, the percent span entry was “inactive”.
For `CCOC(=O)c1nc(Nc2ccc(Nc3ccccc3)cc2)c2ccccc2n1`, the percent span entry is “inactive”.
Consider `O=C(NCCCN1CCN(CCCNC(=O)c2cc([N+](=O)[O-])ccc2Cl)CC1)c1cc([N+](=O)[O-])ccc1Cl`, for which the percent span result was “inactive”.
The value for `CCN(CC)c1ccc(Nc2nc(N3CCOCC3)c3ccccc3n2)cc1` was “inactive”; that for `O=C(OCc1nc2ccccc2[nH]1)C12CC3CC(CC(C3)C1)C2` was “inactive”.
The entry for `CNc1ccc(Br)cc(C(=O)/C=C/c2cccc(OC)c2)c1=O` is “inactive”.
As to `COC(=O)c1ccc(/C=N/NC(=O)CC(=O)NCc2cccnc2)cc1`, the percent span result is “inactive”.
The entry for `COc1ccccc1Nc1nc(-c2c(C)nc3ncccn23)cs1` is “inactive”.
Turning to `CCN(CC)CCN(C(=O)c1ccc(N2C(=O)CCC2=O)cc1)c1nc2cc3c(cc2s1)OCCO3`, the percent span entry was “inactive”.
The value for `Cc1ccc(/C=C/C2=Cc3c(sc(NC(=O)CSc4n[nH]c(N)n4)c3C#N)C(C)(C)C2)o1` was “inactive”; that for `COc1ccc(-c2nnc(SCC(=O)Nc3nc4ccccc4s3)n2C)cc1` was “inactive”.
In the case of `O=C(CC1NCCNC1=O)Nc1cccc([N+](=O)[O-])c1` (centres undefined), the percent span entry was “inactive”.
The entry for `Cc1ccc(N=Cc2c(O)n(-c3ccc4c(c3)OCO4)c(=O)c3ccccc23)cc1` is “inactive”; for `CCN(CC)c1ccc(NC(=O)c2ccccc2)cc1S(=O)(=O)Nc1ccccc1OC` it is “inactive”.
The value for `CCN(CC)S(=O)(=O)c1cccc(C(=O)N/N=C/c2ccc(O)c(O)c2O)c1` was “inactive”; that for `CCOc1cc(/C=N/NC(N)=O)ccc1OCC(=O)Nc1ccc(C)c(C)c1` was “inactive”.
The value for `CCN(CC)c1ccc(NC(=O)COc2ccccc2C#N)cc1S(=O)(=O)Nc1ccccc1OC` was “inactive”; that for `CN(C)c1ccc(C(=O)/C=C/c2ccc(Br)cc2)cc1` was “inactive”.
Turning to `O=C(OCc1cnc(Cl)s1)c1cccc(Cl)c1Cl`, the percent span entry is “inactive”.
On to `OCCC1CN(Cc2nc3c(s2)CCCC3)CCN1Cc1ccsc1` (centres undefined), for which the percent span entry is “inactive”.
The value for `Cc1ccc(/C=C2\CCCC3=C2NC(=S)NC3c2ccc(C)cc2)cc1` (centres undefined) was “inactive”; that for `Cc1ccccc1-n1nc(SCC(=O)O)sc1=S` was “inactive”.
As for `CC1Nc2ccccc2C(=O)N1NS(C)(=O)=O` (centres undefined), the percent span result is “inactive”.
`Cc1cccc(-n2c(-c3ccncc3)n[nH]c2=S)c1`: the percent span entry is “inactive”.
The value for `C#CCOCCOCCOCCNc1nc(N2CCN(C(=O)[C@H]([C@@H](C)CC)n3cc([C@@H](N)CC(C)C)nn3)CC2)nc(N2CCN(C(=O)[C@H](Cc3cc4ccccc4[nH]3)n3cc([C@@H](N)Cc4ccc(O)cc4)nn3)CC2)n1` was “inactive”; that for `O=[N+]([O-])c1ccc(N/N=C/c2ccc(O)c(O)c2O)c(S(=O)(=O)N2CCOCC2)c1` was “inactive”.
In the case of `COc1ccc(S(=O)(=O)NCCOc2cccc3cccnc23)cc1OC`, the percent span result is “inactive”.
The value for `COc1ccc2nc(NC(=O)c3ccc(-c4cccc([N+](=O)[O-])c4)o3)sc2c1` was “inactive”.
The entry for `COC(=O)CCC(=O)Nc1sc(Cc2ccccc2)c(C)c1C(N)=O` is “inactive”; for `CCOc1ccccc1NC(=O)CSc1ccc2nnc(-c3cccnc3)n2n1` it is “inactive”.
`CCOc1cc(CNc2ccc(N3CCCCC3)cc2)cc(Br)c1OCC(=O)NC(C)(C)C`: the percent span entry is “inactive”.
`COC(=O)c1[nH]c2ccccc2c1NC(=O)c1ccccc1[N+](=O)[O-]`: the percent span entry is “inactive”.
The value for `CCOC(=O)c1c(NC(=O)c2ccccc2N(C)S(=O)(=O)c2ccccc2)sc2c1CCCC2` was “inactive”.
The entry for `Fc1ccc(Cn2nnnc2C(c2ccc(Cl)cc2)N2CCSCC2)cc1` (centres undefined) is “inactive”; for `Fc1cccc(Nc2nc(-c3ccncc3)nc3ccccc23)c1` it is “inactive”; for `COc1cc(NC(=S)NC(=O)c2cc(C)cc(C)c2)ccc1NC(=O)c1cccs1` it is “inactive”.
On to `C/C(=N\NC(=O)COc1ccc(C#N)cc1)c1ccccc1OC(F)F`, for which the percent span result was “inactive”.
The value for `CCSc1ncc(Cl)c(C(=O)Nc2sc3c(c2C(=O)NCc2cccnc2)CCCC3)n1` was “inactive”; that for `COc1ccc(OC)c(Nc2ccc(C(=O)O)cc2[N+](=O)[O-])c1` was “inactive”.
The entry for `COc1ccc(S(=O)(=O)NCCSc2ccccc2)cc1OC` is “inactive”.
For the molecule `Cc1nn(-c2ccc(Cl)c(Cl)c2)c(C)c1C(=O)O`, the percent span entry is “inactive”.
The entry for `CNC(CC(=O)c1ccc([N+](=O)[O-])cc1)C(Cl)(Cl)Cl` (centres undefined) is “inactive”.
The entry for `Cc1nonc1NC(=O)CSc1nnc(-c2ccoc2C)n1C` is “inactive”; for `COc1cc(N=c2ssnc2Cl)c(OC)cc1Cl` it is “inactive”.
For the molecule `O=C(Nc1ccc2nc(-c3ccco3)c(-c3ccco3)nc2c1)N1CCCCCC1`, the percent span entry was “inactive”.
The entry for `Cc1c(N=C2C=CC(=O)c3ccccc32)c(=O)n(-c2ccccc2)n1C` is “inactive”; for `CCN1CCN(CC(=O)c2c[nH]c3ccc(C)cc23)CC1` it is “inactive”.
As for `CCN1/C(=C/c2ccc3cc(C)cc(C)c3[n+]2CC)Sc2cc(C)ccc21`, the percent span result was “inactive”.
The value for `COc1ccc(N=C2NC(=O)/C(=C\C=C\c3ccco3)S2)cc1` was “inactive”.
On to `S=C1NC2=C(CCC/C2=C\c2ccccc2)C(c2ccccc2)N1` (centres undefined), for which the percent span result was “inactive”.
The value for `CCOC(=O)CCCNC(=O)c1cncc(O)c1` was “inactive”.
The entry for `CSc1nnc2ccc(-c3cccs3)nn12` is “inactive”.
Turning to `CC[n+]1c(/C=C/C=C/N(C(C)=O)c2ccccc2)sc2ccccc21`, the percent span result is “inactive”.
The value for `Cc1ccc(S(=O)(=O)N(C)CC(=O)N2CCc3ccccc32)cc1` was “inactive”.
Consider `CC1(C)CC(NC(=O)COc2ccc([N+](=O)[O-])cc2)CC(C)(C)N1`, for which the percent span result was “inactive”.
The value for `COc1cc(N2CCOCC2)ccc1C=C1C(=O)NC(=O)NC1=O` was “inactive”; that for `O=S1(=O)N=C(N(CCO)/N=C/c2ccncc2)c2ccccc21` was “inactive”.
The value for `CS(=O)(=O)NN1C(=O)c2ccccc2NC1c1cccc2cccnc12` (centres undefined) was “inactive”.
Consider `CN(C)c1ccc(/C=C2/SC(=O)N(CCN=C3NS(=O)(=O)c4ccccc43)C2=O)cc1`, for which the percent span entry was “inactive”.
The entry for `Cc1cc(C)c(S(=O)(=O)/N=C2/C=C(SCC(=O)O)C(=O)c3ccccc32)cc1C` is “inactive”; for `O=C(C1=C(Nc2ccccc2)c2ccccc2S(=O)(=O)N1)c1ccccc1` it is “inactive”; for `Cc1cc(-c2cc(-c3ccc(Cl)cc3)nc(N)c2C#N)co1` it is “inactive”.
The entry for `CCOc1ccc2nc(SCC(=O)N3c4ccccc4Sc4ccccc43)c(C#N)cc2c1` is “inactive”; for `Cc1ccc2c(c1)C1CN(C)CCC1N2C(=O)Nc1cccc(Cl)c1` (centres undefined) it is “inactive”; for `Cc1sc2nc(C(C)C)nc(SCC(=O)N3c4ccccc4CC3C)c2c1C` (centres undefined) it is “inactive”.
Consider `O=C(Nc1nnc(COc2ccc(Cl)cc2)s1)c1ccco1`, for which the percent span entry is “inactive”.
In the case of `O=C(OCC(=O)c1ccc[nH]1)c1ccccc1`, the percent span entry was “inactive”.
The entry for `COc1ccccc1-n1c(SCC(=O)N2CCc3ccccc32)nc2c(c1=O)SCC2` is “inactive”; for `CNc1ccccc(C(=O)/C=C/c2ccccc2OC)c1=O` it is “inactive”.
The entry for `CCN(CC)c1ccc(NC(=O)c2ccc(=O)[nH]c2)cc1S(=O)(=O)Nc1ccccc1OC` is “inactive”.
